Data on 27 molecules can be found in patent US20090311217A1, “3-SUBSTITUTED-1H-INDOLE COMPOUNDS, THEIR USE AS MTOR KINASE AND PI3 KINASE INHIBITORS, AND THEIR SYNTHESES” (priority 2008, published 2009).

For one assay, the target named is PI3K-alpha (Homo sapiens, UniProt P42336). Briefly: PI3K-alpha fluorescence polarization assay. The format is biochemical. The settings on record: read-out: PI3Kα Avg. IC50. For orientation: Polarisation of emitted light reports the rotation of a fluorescent probe.
Sequence of PI3K-alpha (P42336 whole entry, species assumed, the tested form may be a part, canonical isoform): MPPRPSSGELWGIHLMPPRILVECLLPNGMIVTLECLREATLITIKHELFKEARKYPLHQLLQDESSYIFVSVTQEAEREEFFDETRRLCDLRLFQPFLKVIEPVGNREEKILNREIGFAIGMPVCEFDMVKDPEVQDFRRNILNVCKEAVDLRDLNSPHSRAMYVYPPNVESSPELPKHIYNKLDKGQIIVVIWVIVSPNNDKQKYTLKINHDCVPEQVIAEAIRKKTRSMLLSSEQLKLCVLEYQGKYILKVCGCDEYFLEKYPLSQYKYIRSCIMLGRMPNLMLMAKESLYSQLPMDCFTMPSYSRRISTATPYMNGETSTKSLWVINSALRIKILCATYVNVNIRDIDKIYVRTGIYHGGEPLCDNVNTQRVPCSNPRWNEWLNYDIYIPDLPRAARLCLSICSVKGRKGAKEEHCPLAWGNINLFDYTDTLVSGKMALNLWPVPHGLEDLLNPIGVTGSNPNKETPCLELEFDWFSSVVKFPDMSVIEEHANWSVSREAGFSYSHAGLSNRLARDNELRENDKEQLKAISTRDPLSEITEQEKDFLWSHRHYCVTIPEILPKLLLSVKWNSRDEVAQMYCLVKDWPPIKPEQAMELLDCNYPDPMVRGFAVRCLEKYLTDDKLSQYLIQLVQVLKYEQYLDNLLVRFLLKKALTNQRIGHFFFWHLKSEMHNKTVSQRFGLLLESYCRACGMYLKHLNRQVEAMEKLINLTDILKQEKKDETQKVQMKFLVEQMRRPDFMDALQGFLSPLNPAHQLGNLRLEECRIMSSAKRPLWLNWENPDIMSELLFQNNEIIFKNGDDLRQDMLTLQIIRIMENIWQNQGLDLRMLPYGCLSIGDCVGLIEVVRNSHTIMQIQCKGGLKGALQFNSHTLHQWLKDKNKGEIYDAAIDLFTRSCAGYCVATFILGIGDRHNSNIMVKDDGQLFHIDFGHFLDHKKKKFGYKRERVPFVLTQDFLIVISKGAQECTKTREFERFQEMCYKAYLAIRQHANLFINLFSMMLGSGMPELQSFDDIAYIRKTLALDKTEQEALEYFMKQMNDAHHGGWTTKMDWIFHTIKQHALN
Sequence of PI3K-alpha (P27986 whole entry partner, species assumed, the tested form may be a part, canonical isoform): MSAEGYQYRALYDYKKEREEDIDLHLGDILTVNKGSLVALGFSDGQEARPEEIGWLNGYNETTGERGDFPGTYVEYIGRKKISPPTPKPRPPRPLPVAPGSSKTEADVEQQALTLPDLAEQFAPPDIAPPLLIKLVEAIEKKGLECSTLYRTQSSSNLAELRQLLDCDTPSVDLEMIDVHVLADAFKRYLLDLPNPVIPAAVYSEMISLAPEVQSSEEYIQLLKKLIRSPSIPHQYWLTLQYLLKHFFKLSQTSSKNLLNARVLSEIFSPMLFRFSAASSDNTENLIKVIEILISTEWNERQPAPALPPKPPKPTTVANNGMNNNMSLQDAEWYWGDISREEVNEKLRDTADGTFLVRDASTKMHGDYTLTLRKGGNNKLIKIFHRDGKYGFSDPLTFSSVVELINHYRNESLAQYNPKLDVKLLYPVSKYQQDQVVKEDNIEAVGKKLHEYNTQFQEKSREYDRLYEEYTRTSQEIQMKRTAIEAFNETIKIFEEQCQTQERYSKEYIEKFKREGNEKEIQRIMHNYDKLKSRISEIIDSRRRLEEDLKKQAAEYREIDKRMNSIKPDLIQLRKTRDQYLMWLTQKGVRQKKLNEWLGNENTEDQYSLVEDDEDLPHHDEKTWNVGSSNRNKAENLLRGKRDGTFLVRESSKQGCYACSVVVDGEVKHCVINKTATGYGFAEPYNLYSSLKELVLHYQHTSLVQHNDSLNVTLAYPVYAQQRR
The target of the next assay is PI3K-gamma (Homo sapiens, UniProt P48736). Briefly: PI3K-gamma fluorescence polarization assay. The format is biochemical. The method, boiled down: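 Each isoform (5 ng) phosphorylated 2.5 μM diC8-PI(4,5)P2 at 25 μM ATP for one hour at 25° C in the presence of inhibitor. Reactions were then stopped with EDTA, and product was detected by fluorescence polarization using a GST-GRP1 PH domain and a BODIPY-TMR-labelled IP4 tracer.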
Sequence of PI3K-gamma (P48736 whole entry, species assumed, the tested form may be a part, canonical isoform): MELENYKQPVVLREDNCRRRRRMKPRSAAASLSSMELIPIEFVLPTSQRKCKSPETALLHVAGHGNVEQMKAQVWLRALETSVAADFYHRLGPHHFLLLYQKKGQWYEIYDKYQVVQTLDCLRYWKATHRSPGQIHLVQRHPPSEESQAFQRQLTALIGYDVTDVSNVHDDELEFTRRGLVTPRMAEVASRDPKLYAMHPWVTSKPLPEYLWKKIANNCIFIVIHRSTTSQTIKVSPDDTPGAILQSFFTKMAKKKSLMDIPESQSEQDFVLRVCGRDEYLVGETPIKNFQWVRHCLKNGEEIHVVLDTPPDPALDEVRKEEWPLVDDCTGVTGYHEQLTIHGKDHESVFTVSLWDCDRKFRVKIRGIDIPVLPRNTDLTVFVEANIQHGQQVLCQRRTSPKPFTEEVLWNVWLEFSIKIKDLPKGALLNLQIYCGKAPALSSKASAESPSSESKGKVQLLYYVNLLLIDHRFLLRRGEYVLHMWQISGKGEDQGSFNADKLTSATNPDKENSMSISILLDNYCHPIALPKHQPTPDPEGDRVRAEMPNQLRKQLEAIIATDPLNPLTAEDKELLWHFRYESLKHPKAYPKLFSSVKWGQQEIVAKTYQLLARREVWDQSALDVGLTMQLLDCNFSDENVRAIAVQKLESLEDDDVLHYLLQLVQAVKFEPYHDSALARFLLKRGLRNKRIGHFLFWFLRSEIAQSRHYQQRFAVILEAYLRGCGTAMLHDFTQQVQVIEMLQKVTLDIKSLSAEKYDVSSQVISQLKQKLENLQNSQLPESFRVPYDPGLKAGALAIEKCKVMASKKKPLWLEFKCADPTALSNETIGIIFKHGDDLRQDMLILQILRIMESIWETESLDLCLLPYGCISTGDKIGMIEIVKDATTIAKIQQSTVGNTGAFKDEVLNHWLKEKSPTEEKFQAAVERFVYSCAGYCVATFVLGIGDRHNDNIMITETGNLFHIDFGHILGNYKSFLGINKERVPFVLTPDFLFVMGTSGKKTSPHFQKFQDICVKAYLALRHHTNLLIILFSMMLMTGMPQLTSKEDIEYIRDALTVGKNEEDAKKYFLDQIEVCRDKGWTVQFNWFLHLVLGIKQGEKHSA

Where two headings read alike, the source gives them in different places. Where only a bound is given, the exact number is not on record here.

In general, IC50 refers to the concentration at which inhibition is half-maximal. With `COc1ccc2[nH]cc(/C=C3\Oc4ccc(NC(=O)Nc5ccc(N(C)C)cc5)cc4C3=O)c2c1` [Compound 492, 1-[4-(dimethylamino)phenyl]-3-{(2Z)-2-[(5-methoxy-1H-indol-3-yl)methylene]-3-oxo-2,3-dihydro-1-benzofuran-5-yl}urea], the IC50 on PI3K-alpha is 656 nM; on PI3K-gamma (PI3Kγ Avg. IC50), more than 10000 nM.

Turning to `CNC(=O)Nc1ccc2c(c1)C(=O)/C(=C/c1c(C3CC3)n(CCN3CCN(C)CC3)c3ccc(OC)cc13)O2` [Compound 559, 1-[(2Z)-2-({2-cyclopropyl-5-methoxy-1-[2-(4-methylpiperazin-1-yl)ethyl]-1Hindol-3-yl}methylene)-3-oxo-2,3-dihydro-1-benzofuran-5-yl]-3-methylurea], the IC50 on PI3K-alpha was 2.25 nM; against PI3K-gamma (PI3Kγ Avg. IC50), 537 nM.

For the molecule `CCn1c(C)c(/C=C2\Oc3ccc(NC(=O)Nc4ccc(N(C)C)cc4)cc3C2=O)c2cc(OC)ccc21` [Compound 681, 1-[4-(dimethylamino)phenyl]-3-{(2Z)-2-[(1-ethyl-5-methoxy-2-methyl-1H-indol-3-yl)methylidene]-3-oxo-2,3-dihydro-1-benzofuran-5-yl}urea], the half-maximal inhibitory concentration (IC50) at PI3K-alpha is 11.5 nM; against PI3K-gamma (PI3Kγ Avg. IC50), 69.5 nM.

Turning to `COc1cc(-c2cncnc2)c2c(c1)c(/C=C1\Oc3cc(O)ccc3C1=O)cn2CCCC#N` [Compound 501, 4-{3-[(Z)-(6-hydroxy-3-oxo-1-benzofuran-2(3H)-ylidene)methyl]-5-methoxy-7-pyrimidin-5-yl-1H-indol-1-yl}butanenitrile], the figures for the IC50 at PI3K-alpha and against PI3K-gamma (PI3Kγ Avg. IC50) were 701 nM and 7000 nM, respectively.

As for `Cn1c(-c2ccccc2)c(/C=C2\Oc3cc(O)cc(O)c3C2=O)c2c(N)cccc21` [Compound 521, (2Z)-2-[(4-amino-1-methyl-2-phenyl-1H-indol-3-yl)methylene]-4,6-dihydroxy-1-benzofuran-3(2H)-one], the IC50 was determined as 2470 nM on PI3K-alpha and 8510 nM on PI3K-gamma (PI3Kγ Avg. IC50).

As for `CNC(=O)Nc1ccc2c(c1)C(=O)/C(=C/c1c(C)n(CCCN3CCN(CCO)CC3)c3ccc(OC)cc13)O2` [Compound 599, 1-{(2Z)-2-[(1-{3-[4-(2-hydroxyethyl)piperazin-1-yl]propyl}-5-methoxy-2-methyl-1H-indol-3-yl)methylidene]-3-oxo-2,3-dihydro-1-benzofuran-5-yl}-3-methylurea], the concentration for half-maximal inhibition (IC50) at PI3K-alpha was 10 nM; at PI3K-gamma (PI3Kγ Avg. IC50), 950 nM.

Take `CNC(=O)Nc1ccc2c(c1)C(=O)/C(=C/c1c(C3=CCNCC3)n(CCN3CCN(C)CC3)c3ccc(OC)cc13)O2` [Compound 607, 1-[(2Z)-2-({5-methoxy-1-[2-(4-methylpiperazin-1-yl)ethyl]-2-(1,2,3,6-tetrahydropyridin-4-yl)-1H-indol-3-yl}methylidene)-3-oxo-2,3-dihydro-1-benzofuran-5-yl]-3-methylurea]: the IC50 was found to be 4.5 nM on PI3K-alpha and 4220 nM against PI3K-gamma (PI3Kγ Avg. IC50).

With `COc1ccc2c(c1)c(/C=C1\Oc3cc(O)cc(C)c3C1=O)cn2C` [Compound 507, (2Z)-6-hydroxy-2-[(5-methoxy-1-methyl-1H-indol-3-yl)methylene]-4-methyl-1-benzofuran-3(2H)-one], the 50% inhibitory concentration (IC50) at PI3K-alpha was found to be 78.5 nM; on PI3K-gamma (PI3Kγ Avg. IC50), 1540 nM.

For `O=C1/C(=C/c2c(-c3ccc(F)cc3)[nH]c3ccccc23)Sc2ccccc21` [Example 277, (2Z)-2-{[2-(4-fluorophenyl)-1H-indol-3-yl]methylene}-1-benzothiophen-3(2H)-one], the concentration for half-maximal inhibition (IC50) on PI3K-alpha is 268 nM; against PI3K-gamma (PI3Kγ Avg. IC50), 264 nM.

`Cn1cc(/C=C2\Oc3ccc(Br)cc3C2=O)c2c(-c3ccccc3)cccc21` [Compound 527, (2Z)-5-bromo-2-[(1-methyl-4-phenyl-1H-indol-3-yl)methylene]-1-benzofuran-3(2H)-one]: the IC50 at PI3K-alpha is 2990 nM; at PI3K-gamma (PI3Kγ Avg. IC50), 3810 nM.

As to `COc1cc(-c2cncnc2)c2[nH]cc(/C=C3\Oc4cc(O)ccc4C3=O)c2c1` [Compound 498, (2Z)-6-hydroxy-2-[(5-methoxy-7-pyrimidin-5-yl-1H-indol-3-yl)methylene]-1-benzofuran-3(2H)-one], the IC50 at PI3K-alpha came out at 63.5 nM; against PI3K-gamma (PI3Kγ Avg. IC50), 392 nM.

Turning to `CNC(=O)Nc1ccc2c(c1)C(=O)/C(=C/c1c(C)n(CCCN3CCC(O)C3)c3ccc(OC)cc13)O2` (stereo not drawn) [Compound 589, 1-[(2Z)-2-({1-[3-(3-hydroxypyrrolidin-1-yl)propyl]-5-methoxy-2-methyl-1H-indol-3-yl}methylene)-3-oxo-2,3-dihydro-1-benzofuran-5-yl]-3-methylurea], the IC50 at PI3K-alpha is 4.5 nM; against PI3K-gamma (PI3Kγ Avg. IC50) it was 967 nM.

Regarding “6,7-dihydroxy-2-[(1-{4-[4-(2-hydroxyethyl)piperazin-1-yl]butyl}-5-methoxy-2-methyl-1H-indol-3-yl)methylene]-1-benzofuran-3(2H)-one [Example 134]”, the concentration for half-maximal inhibition (IC50) at PI3K-alpha was 204 nM; at PI3K-gamma (read-out: PI3Kγ Avg. IC50) it was 3170 nM.

For `CNC(=O)Nc1ccc2c(c1)C(=O)/C(=C/c1c(C)n(CCCN3CCCCC3)c3ccc(OC)cc13)O2` [Compound 588, 1-[(2Z)-2-{[5-methoxy-2-methyl-1-(3-piperidin-1-ylpropyl)-1H-indol-3-yl]methylene}-3-oxo-2,3-dihydro-1-benzofuran-5-yl]-3-methylurea], the half-inhibitory concentration (IC50) at PI3K-alpha was 3.5 nM; against PI3K-gamma (PI3Kγ Avg. IC50) it was 830 nM.

Consider `CNC(=O)Nc1ccc2c(c1)C(=O)/C(=C/c1c[nH]c3c(/C=C/CN(C)C)cc(OC)cc13)O2` [Compound 573, 1-[(2Z)-2-({7-[(1E)-3-(dimethylamino)prop-1-en-1-yl]-5-methoxy-1H-indol-3-yl}methylene)-3-oxo-2,3-dihydro-1-benzofuran-5-yl]-3-methylurea], for which the half-inhibitory concentration (IC50) at PI3K-alpha turned out to be 52 nM; on PI3K-gamma (PI3Kγ Avg. IC50) it was 1590 nM.

For the molecule `CNC(=O)Nc1ccc2c(c1)C(=O)/C(=C/c1cn(CCCN3CCOCC3)c3ccc(OC)cc13)O2` [Compound 580, 1-[(2Z)-2-{[5-methoxy-1-(3-morpholin-4-ylpropyl)-1H-indol-3-yl]methylene}-3-oxo-2,3-dihydro-1-benzofuran-5-yl]-3-methylurea], the figures for the IC50 on PI3K-alpha and on PI3K-gamma (PI3Kγ Avg. IC50) were 53 nM and 1360 nM, respectively.

As to `CNC(=O)Nc1ccc2c(c1)C(=O)/C(=C/c1c(C)n(CCCN3CCC(O)CC3)c3ccc(OC)cc13)O2` [Compound 587, 1-[(2Z)-2-({1-[3-(4-hydroxypiperidin-1-yl)propyl]-5-methoxy-2-methyl-1H-indol-3-yl}methylene)-3-oxo-2,3-dihydro-1-benzofuran-5-yl]-3-methylurea], the half-maximal inhibitory concentration (IC50) at PI3K-alpha amounted to 4 nM; on PI3K-gamma (PI3Kγ Avg. IC50) it was 982 nM.

For `COc1ccc2[nH]c(-c3ccccc3)c(CC3Oc4cc(O)cc(O)c4C3=O)c2c1` (stereo not drawn) [Example 118, 4,6-dihydroxy-2-[(5-methoxy-2-phenyl-1H-indol-3-yl)methyl]-1-benzofuran-3(2H)-one], the IC50 at PI3K-alpha amounted to 288 nM; against PI3K-gamma (PI3Kγ Avg. IC50) it was 932 nM.

Regarding `O=C1/C(=C/c2cn(CCO)c3cccc(-c4ccccc4)c23)Oc2cc(O)cc(O)c21` [Compound 478, (2Z)-4,6-dihydroxy-2-{[1-(2-hydroxyethyl)-4-phenyl-1H-indol-3-yl]methylene}-1-benzofuran-3(2H)-one], the concentration for half-maximal inhibition (IC50) at PI3K-alpha was 1200 nM; against PI3K-gamma (PI3Kγ Avg. IC50), 1740 nM.

Consider `COc1ccc2c(c1)c(/C=C1\Oc3ccc(NC(=O)NCCN)cc3C1=O)c(C1CCCC1)n2CCN1CCN(C)CC1` [Compound 577, 1-(2-aminoethyl)-3-[(2Z)-2-({2-cyclopentyl-5-methoxy-1-[2-(4-methylpiperazin-1-yl)ethyl]-1H-indol-3-yl}methylene)-3-oxo-2,3-dihydro-1-benzofuran-5-yl]urea], for which the values for the IC50 on PI3K-alpha and against PI3K-gamma (PI3Kγ Avg. IC50) were 1.1 nM and 146 nM, respectively.

“6,7-dihydroxy-2-({5-methoxy-2-methyl-1-[4-(4-methylpiperazin-1-yl)butyl]-1H-indol-3-yl}methylene)-1-benzofuran-3(2H)-one [Example 132]”: the figures for the half-inhibitory concentration (IC50) on PI3K-alpha and on PI3K-gamma (read-out: PI3Kγ Avg. IC50) were 337 nM and 4150 nM, respectively.

Regarding `CCc1cc(OC)cc2c(C=C3Oc4cc(O)cc(O)c4C3=O)cn(CCCC#N)c12` [Compound 471, 4-{3-[(4,6-dihydroxy-3-oxo-1-benzofuran-2(3H)-ylidene)methyl]-7-ethyl-5-methoxy-1H-indol-1-yl}butanenitrile], the IC50 was 62.5 nM at PI3K-alpha and 139 nM against PI3K-gamma (PI3Kγ Avg. IC50).

On to `COc1ccc2[nH]cc(/C=C3\Oc4cc(O)cc(OC)c4C3=O)c2c1` [Compound 472, (2Z)-6-hydroxy-4-methoxy-2-[(5-methoxy-1H-indol-3-yl)methylene]-1-benzofuran-3(2H)-one], for which the half-maximal inhibitory concentration (IC50) on PI3K-alpha was 163 nM; against PI3K-gamma (PI3Kγ Avg. IC50) it was 1130 nM.

Take `CNC(=O)Nc1ccc2c(c1)C(=O)/C(=C/c1cn(CCCN3CCCCC3)c3ccc(OC)cc13)O2` [Compound 578, 1-[(2Z)-2-{[5-methoxy-1-(3-piperidin-1-ylpropyl)-1H-indol-3-yl]methylene}-3-oxo-2,3-dihydro-1-benzofuran-5-yl]-3-methylurea]: the results for the 50% inhibitory concentration (IC50) at PI3K-alpha and against PI3K-gamma (PI3Kγ Avg. IC50) were 38 nM and 2180 nM, respectively.

On to `CNC(=O)c1cc(O)cc2c1C(=O)/C(=C/c1c[nH]c3ccc(OC)cc13)O2` [Compound 513, (2Z)-6-hydroxy-2-[(5-methoxy-1H-indol-3-yl)methylene]-N-methyl-3-oxo-2,3-dihydro-1-benzofuran-4-carboxamide], for which the IC50 on PI3K-alpha was 1540 nM; against PI3K-gamma (PI3Kγ Avg. IC50), more than 10000 nM.

For the molecule `COc1cc(-c2cncnc2)c2c(c1)c(/C=C1\Oc3cc(O)cc(O)c3C1=O)cn2CCCC#N` [Compound 503, 4-{3-[(Z)-(4,6-dihydroxy-3-oxo-1-benzofuran-2(3H)-ylidene)methyl]-5-methoxy-7-pyrimidin-5-yl-1H-indol-1-yl}butanenitrile], the 50% inhibitory concentration (IC50) at PI3K-alpha was 106 nM; at PI3K-gamma (PI3Kγ Avg. IC50) it was 811 nM.

As to `COc1ccc2[nH]cc(C=C3Oc4cc(O)cc(Br)c4C3=O)c2c1` [Compound 505, 4-bromo-6-hydroxy-2-[(5-methoxy-1H-indol-3-yl)methylene]-1-benzofuran-3(2H)-one], the 50% inhibitory concentration (IC50) at PI3K-alpha is 120 nM; against PI3K-gamma (PI3Kγ Avg. IC50), 813 nM.
